Key:
MV4-11 = experiment: Cytotoxicity assay (Cell Titer-Blue, 72 h); type: cell-based; conditions: Homo sapiens; MV4-11 (AML); read-out: In cellulo IC50 MV4-11
SNK6 = experiment: Cytotoxicity assay (Cell Titer-Blue, 72 h); type: cell-based; conditions: T/NK cell lymphoma, one representative of three experiments, read-out: IC50 (heat map) SNK6
MOLT4 = experiment: Cytotoxicity assay (Cell Titer-Blue, 72 h); type: cell-based; conditions: Homo sapiens, MOLT-4; T-ALL; one representative of three experiments; read-out: IC50 (heat map) MOLT4
[1] = In vivo PK study in CD-1 male mice; conditions: mouse, plasma, CD-1 mice, IP, 20 mg/kg
acetylation of α-tubulin = experiment: Immunofluorescence assay in HeLa cells; type: cell-based; conditions: 6 h, increasing doses
Method: HeLa cells were plated to subconfluency on a 96-well plate (clear bottom black from Fisher Scientific). As above, inhibitors were introduced following 24 h. The cells were washed with 1× PBS, fixed with 4% formaldehyde (Millipore Sigma), permeabilized with 1% Triton X-100 (Millipore Sigma), and blocked in 5% bovine serum albumin (BSA) (BioShop) for 1 h at room temperature. Following this treatment, the cells were incubated in a cocktail composed of acetylated α-tubulin mouse monoclonal (1:100 dilution, MD Millipore) and acetylated histone H3 (1:50 dilution, Ac-Lys18, Sigma) antibodies. Secondary antibodies anti-mouse Alexa Fluor 647 and anti-rabbit Alexa Fluor 488 were used for immunofluorescent detection. Cells were counterstained for nucleic acids using 4′,6-diamidino-2-phenylindole (DAPI) (ThermoFisher Scientific). The cells were imaged with a Cytation S63 spectrophotometer and the fluorescence intensity was determined using ImageJ (n = 3). Two-way ANOVA with Tukey’s multiple comparisons test were performed using GraphPad Prism 6.0 (GraphPad Software Inc.). A p-value ≤ 0.05 was considered significant.

Mac1 = experiment: Cytotoxicity assay (Cell Titer-Blue, 72 h); type: cell-based; conditions: ALK- ALCL; one representative of three experiments; read-out: IC50 (heat map) Mac1
Method: (§1) The PTCL cell lines, KHYG-1, NK-92, SNK6, DERL-2, Mac1, 1305 Myla, Hut78, SU-DHL-1 or T-ALL cell lines SUP-T11, DND-41, and MOLT4 were maintained in RPMI-1640 supplemented with 10% FBS, 0.06 g/L penicillin/0.1 g/L streptomycin (Pen/Strep, Gibco), and 2 mM L-glutamine (Gibco). Culture media of KHYG-1, NK-92, SNK6, and DERL-2 cells was additionally supplemented with 2.5 ng/mL recombinant human IL-2 (ImmunoTools GmbH, Germany). The authenticity of PTCL cell lines was confirmed by analysis of highly polymorphic short tandem repeat loci (STR) using the PowerPlex 16 HS System (Promega; performed by Microsynth AG, Switzerland).
(§2) Cells were plated in 96-well flat-bottom sterile culture plates with low-evaporation lids (Costar #3997). The inhibitors and a vehicle control (0.5% DMSO) were added to the cells following 24 h. After 72 h, Cell Titer-Blue (Promega #G808A) was added to each well (20 μL), and the fluorescence was measured at 560/590 nm using a Cytation S63 spectrophotometer (BioTek) or a GloMax Discover Microplate Reader (Promega, Madison, WI, USA). GraphPad Prism 6.0 (GraphPad Software Inc.) was used to determine the IC50 values.

Hut78 = experiment: Cytotoxicity assay (Cell Titer-Blue, 72 h); type: cell-based; conditions: Homo sapiens, CTCL, one representative of three experiments, read-out: IC50 (heat map) Hut78
Method: as §1, §2

KHYG-1 = experiment: Cytotoxicity assay (Cell Titer-Blue, 72 h); type: cell-based; conditions: ANKL, one representative of three experiments, read-out: IC50 (heat map) KHYG-1
[2] = test system: pPF (primary pooled fibroblasts from 250 donors); experiment: Cytotoxicity assay (Cell Titer-Blue, 72 h); type: cell-based; conditions: Fibroblast, read-out: Cellular IC50 pPF
MRC-9 = experiment: Cytotoxicity assay (Cell Titer-Blue, 72 h); type: cell-based; conditions: MRC9; MRC-9 (healthy fibroblasts); read-out: In cellulo IC50 MRC-9
DND-41 = experiment: Cytotoxicity assay (Cell Titer-Blue, 72 h); type: cell-based; conditions: DND41; T-ALL; one representative of three experiments; read-out: IC50 (heat map) DND-41
[3] = test system: NHF (normal human fibroblasts); experiment: Cytotoxicity assay (Cell Titer-Blue, 72 h); type: cell-based; conditions: Fibroblast, read-out: Cellular IC50 NHF
acetylated histone H3 = experiment: Western blot in MV4-11 cells; type: cell-based; conditions: MV4-11, 6 h
Method: (§3) Briefly, MV4-11 cells were incubated with inhibitors prior to cell lysis with radioimmunoprecipitation assay (RIPA) buffer (20 mM Tris pH 7.4, 150 mM NaCl, 0.5% deoxycholate, 1% Triton X-100, and 0.1% sodium dodecyl sulfate (SDS)). Total protein content was determined through a BCA assay (ThermoFisher), resolved via a 4–20% polyacrylamide SDS gel, and transferred to a nitrocellulose membrane (Bio-Rad). The membranes were blocked with a 5% solution (skimmed milk powder in PBS-T). This was followed by incubation at 4 °C (overnight) with the following antibodies: acetylated α-tubulin mouse monoclonal (MABT868, EMD Millipore), acetylated histone H3 (Ac-Lys18, 07–354, Sigma), PARP-1 (ab227244, Abcam), apoptosis Western blot cocktail (136812, Abcam), cleaved PARP-1 (ab32561, Abcam), and HSC70 (sc-7298, Santa Cruz). Following overnight incubation, horseradish peroxidase (HRP)-conjugated goat anti-mouse IgG secondary antibody (7076, Cell Signaling) or HRP-linked anti-rabbit IgG secondary antibody (7074, Cell Signaling) was applied to the membrane in a 1:5000 dilution. The bands were visualized using clarity Western ECL substrate luminal/enhancer solution and peroxide solution. Western blotting analysis was carried out using Image lab software (Bio-Rad).[47],[50],[70]

[4] = test system: HUVEC (primary human umbilical vein endothelial cells); experiment: Cytotoxicity assay (Cell Titer-Blue, 72 h); type: cell-based; conditions: read-out: Cellular IC50 HUVEC
SUP-T11 = experiment: Cytotoxicity assay (Cell Titer-Blue, 72 h); type: cell-based; conditions: SUPT11; T-ALL/T-PLL like; one representative of three experiments; read-out: IC50 (heat map) SUP-T11
MOLM-13 = experiment: Cytotoxicity assay (Cell Titer-Blue, 72 h); type: cell-based; conditions: Homo sapiens, AML, one representative of three experiments, read-out: IC50 (heat map) MOLM-13
Myla = experiment: Cytotoxicity assay (Cell Titer-Blue, 72 h); type: cell-based; conditions: CTCL; one representative of three experiments; read-out: IC50 (heat map) Myla
MV4-11 cells = experiment: FACS apoptosis detection assay (Annexin V/PI); type: cell-based; conditions: MV4-11, 18 h
Method: MV4-11 cells were prepared, dosed, and washed with cold 1× PBS. The resulting cell pellets were resuspended in 1× Binding Buffer (1 × 10^6 cell/mL) from the FITC Annexin V Apoptosis Detection Kit I (BD Pharmingen). Subsequently, the dyes annexin V (5 μL) and propidium iodide (PI, 5 μL) were added to 2.5 × 10^5 cells (250 μL). The suspension was thoroughly mixed and incubated in the dark for 15 min. Following the addition of 250 μL of 1× binding buffer, the cells were analyzed by flow cytometry within 1 h using the Cytoflex S system (Beckman Coulter).

SU-DHL-1 = experiment: Cytotoxicity assay (Cell Titer-Blue, 72 h); type: cell-based; conditions: Homo sapiens, ALK+ ALCL, one representative of three experiments, read-out: IC50 (heat map) SU-DHL-1
NK-92 = experiment: Cytotoxicity assay (Cell Titer-Blue, 72 h); type: cell-based; conditions: NK92; LGL; one representative of three experiments; read-out: IC50 (heat map) NK-92
[5] = test system: cleavage of PARP-1 and Caspase-3; experiment: Western blot of apoptosis markers in MV4-11 cells; type: cell-based; conditions: MV4-11, 6 h, 5 μM
Method: as §3

DERL-2 = experiment: Cytotoxicity assay (Cell Titer-Blue, 72 h); type: cell-based; conditions: γδ T-NHL; one representative of three experiments; read-out: IC50 (heat map) DERL-2

O=C(CCCCCCNC(=O)c1cnc(N(c2ccccc2)c2ccccc2Cl)nc1)NO [Citarinostat]
IC50 (MV4-11): 1340 nM | IC50 (SNK6): 1900 nM | IC50 (MOLT4): 1720 nM | AUC(0-t) ([1]; read-out: In vivo AUClast (overall exposure)): 4160 ng·h/mL | half-life ([1]; read-out: In vivo t1/2): 15 min | acetylation of α-tubulin (immunofluorescence) (acetylation of α-tubulin): weaker acetylation as compared to KT-531 | IC50 (Mac1): 1780 nM | IC50 (Hut78): 3.77 µM | IC50 (KHYG-1): 1200 nM | IC50 [2]: 7.44 µM | IC50 (MRC-9): > 30 µM | IC50 (DND-41): 1960 nM | IC50 [3]: 5.74 µM | acetylated histone H3 levels (Western blot) (acetylated histone H3): higher with citarinostat in comparison to KT-531 | IC50 [4]: 4.86 µM | IC50 (SUP-T11): 3.94 µM | IC50 (MOLM-13): 1980 nM | IC50 (Myla): 7.97 µM | Early Apoptosis (MV4-11 cells; 0.5 μM): 9% | Late Apoptosis (MV4-11 cells; 1 μM): 10% | Healthy (nonapoptotic) (MV4-11 cells; 2 μM): 47% | IC50 (SU-DHL-1): 4.66 µM | IC50 (NK-92): 1970 nM | cleavage of PARP-1 and Caspase-3 [5]: absence of cleaved Caspase-3 and PARP-1 | IC50 (DERL-2): 1020 nM
